Measured values reported in patent US20250073281A1, “LACTOBACILLUS REUTERI HAVING IMPROVED ANTI-AGING AND HAIR HEALTH ENHANCEMENT EFFECTS, AND APPLICATION THEREOF” (priority 2021, published 2025).
≈ marks a conversion by molar mass, not a printed value. Where two headings read alike, the source gives them in different places.

System: Lactobacillus reuteri VHProbi E18
Test: Antibiotic tolerance experiment, MIC by broth microdilution
Type: cell-based
Conditions: for MIC: antibiotic against Lactobacillus reuteri VHProbi E18
Method: The minimum inhibitory concentration (MIC) value of antibiotics against Lactobacillus reuteri VHProbi E18 was determined by the broth microdilution method.

[1] = Limosilactobacillus reuteri, read-out: MIC

Row | Molecule | sensitivity of Lactobacillus reuteri VHProbi E18 to the antibiotic | MIC [1] [µg/mL] | MIC [µg/mL]
1 | CC1(C)S[C@@H]2[C@H](NC(=O)[C@H](N)c3ccccc3)C(=O)N2[C@H]1C(=O)O [Ampicillin] | sensitive | 1 (≈ 2.86 µM) | 
2 | CCC[C@@H]1C[C@@H](C(=O)N[C@@H]([C@H]2O[C@H](SC)[C@H](O)[C@@H](O)[C@H]2O)[C@H](C)Cl)N(C)C1 [Clindamycin] |  | 256 (≈ 602 µM) | 
3 | CC[C@H]1OC(=O)[C@H](C)[C@@H](O[C@H]2C[C@@](C)(OC)[C@@H](O)[C@H](C)O2)[C@H](C)[C@@H](O[C@@H]2O[C@H](C)C[C@H](N(C)C)[C@H]2O)[C@](C)(O)C[C@@H](C)C(=O)[C@H](C)[C@@H](O)[C@]1(C)O [Erythromycin] | sensitive | 1 (≈ 1.36 µM) | 
4 | [H]/N=C(/N)N[C@H]1[C@H](O)[C@@H](O)[C@H](O[C@@H]2O[C@@H](C)[C@](O)(C=O)[C@H]2O[C@@H]2O[C@@H](CO)[C@H](O)[C@@H](O)[C@@H]2NC)[C@@H](N/C(N)=N\[H])[C@@H]1O [Streptomycin] |  | 512 (≈ 880 µM) | 
5 | CN(C)[C@@H]1C(O)=C(C(N)=O)C(=O)[C@@]2(O)C(O)=C3C(=O)c4c(O)cccc4[C@@](C)(O)[C@H]3C[C@@H]12 [Tetracycline] |  | 16 (≈ 36 µM) | 
6 | Gentamicin |  |  | 256
